Where two headings read alike, the source gives them in different places.

Holding throughout (test): KinomeScan kinase panel, single concentration 10 µM
Holding throughout (format): binding

Experiment [1] deals with T1, KinomeScan kinase panel (Homo sapiens, UniProt O00238).
T1 construct: purchased DiscoveRx (KinomeScan)
The note with it: BMPR1B, 10 µM; read-out: score (%).

Experiment [2] concerns the target T2, KinomeScan kinase panel (Homo sapiens, UniProt O94804).
T2 construct: purchased DiscoveRx (KinomeScan)
The note with it: LOK, 10 µM.

The target of experiment [3] is T3, KinomeScan kinase panel (Homo sapiens, UniProt P11309).
T3 construct: purchased DiscoveRx (KinomeScan)
T3 sequence (P11309 whole entry): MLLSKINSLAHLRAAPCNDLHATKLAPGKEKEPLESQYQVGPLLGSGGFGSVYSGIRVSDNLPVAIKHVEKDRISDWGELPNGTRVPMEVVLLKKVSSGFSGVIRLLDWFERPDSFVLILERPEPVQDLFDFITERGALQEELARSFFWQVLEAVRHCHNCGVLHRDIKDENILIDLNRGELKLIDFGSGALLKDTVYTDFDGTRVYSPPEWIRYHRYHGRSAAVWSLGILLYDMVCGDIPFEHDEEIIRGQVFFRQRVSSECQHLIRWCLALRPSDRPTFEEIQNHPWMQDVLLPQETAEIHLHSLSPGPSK
Conditions: PIM1, 10 µM; read-out: score (%).

Experiment [4] addresses T4, KinomeScan kinase panel (Homo sapiens, UniProt P36888, K663Q).
T4 construct: purchased DiscoveRx (KinomeScan)
T4 sequence (P36888 27-993 K663Q): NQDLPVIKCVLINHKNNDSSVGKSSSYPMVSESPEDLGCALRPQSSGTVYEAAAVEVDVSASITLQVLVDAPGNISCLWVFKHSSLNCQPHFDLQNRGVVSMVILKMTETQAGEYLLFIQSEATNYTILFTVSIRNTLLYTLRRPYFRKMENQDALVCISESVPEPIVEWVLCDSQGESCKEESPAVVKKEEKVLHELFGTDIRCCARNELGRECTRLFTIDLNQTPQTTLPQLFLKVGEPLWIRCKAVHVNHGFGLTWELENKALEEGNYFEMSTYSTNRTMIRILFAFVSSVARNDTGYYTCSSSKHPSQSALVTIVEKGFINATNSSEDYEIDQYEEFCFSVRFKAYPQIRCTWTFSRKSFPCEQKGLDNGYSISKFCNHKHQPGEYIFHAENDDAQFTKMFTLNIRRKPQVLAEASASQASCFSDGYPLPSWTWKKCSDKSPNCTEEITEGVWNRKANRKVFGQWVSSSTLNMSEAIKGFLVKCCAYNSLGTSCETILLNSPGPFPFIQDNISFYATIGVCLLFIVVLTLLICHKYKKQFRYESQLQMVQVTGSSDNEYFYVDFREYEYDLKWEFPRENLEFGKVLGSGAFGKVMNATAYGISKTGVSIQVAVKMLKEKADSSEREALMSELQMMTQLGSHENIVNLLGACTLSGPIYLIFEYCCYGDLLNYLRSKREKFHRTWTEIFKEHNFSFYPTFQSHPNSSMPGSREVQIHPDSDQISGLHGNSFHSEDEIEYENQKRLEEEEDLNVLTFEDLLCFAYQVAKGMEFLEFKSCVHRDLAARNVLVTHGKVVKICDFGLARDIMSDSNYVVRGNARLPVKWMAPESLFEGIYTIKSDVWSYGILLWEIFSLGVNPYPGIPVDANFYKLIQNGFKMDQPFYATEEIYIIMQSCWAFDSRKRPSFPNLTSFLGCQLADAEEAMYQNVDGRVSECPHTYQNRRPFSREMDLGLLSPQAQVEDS
The note with it: FLT3(K663Q), 10 µM; read-out: score (%).

In experiment [5] the target is T5, KinomeScan kinase panel (Homo sapiens, UniProt P51817).
T5 construct: purchased DiscoveRx (KinomeScan)
T5 sequence (P51817 1-358): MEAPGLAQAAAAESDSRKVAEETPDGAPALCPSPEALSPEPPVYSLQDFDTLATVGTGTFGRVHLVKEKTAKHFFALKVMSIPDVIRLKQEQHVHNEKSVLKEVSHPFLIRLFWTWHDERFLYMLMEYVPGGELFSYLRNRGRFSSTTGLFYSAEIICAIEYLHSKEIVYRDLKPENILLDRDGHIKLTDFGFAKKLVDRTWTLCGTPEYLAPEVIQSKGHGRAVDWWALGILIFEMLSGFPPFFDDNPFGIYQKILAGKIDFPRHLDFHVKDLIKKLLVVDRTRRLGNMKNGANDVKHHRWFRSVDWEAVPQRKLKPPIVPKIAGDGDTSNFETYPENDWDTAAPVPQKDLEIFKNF
The note with it: 10 µM, read-out: score (%).

Experiment [6] concerns the target T6, KinomeScan kinase panel (Homo sapiens, UniProt Q96Q40).
T6 construct: purchased DiscoveRx (KinomeScan)
Conditions: PFTAIRE2, 10 µM; read-out: score (%).

Experiment [7] concerns the target T7, KinomeScan kinase panel (Homo sapiens, UniProt Q9BZL6).
T7 construct: purchased DiscoveRx (KinomeScan)
T7 sequence (Q9BZL6 1-878): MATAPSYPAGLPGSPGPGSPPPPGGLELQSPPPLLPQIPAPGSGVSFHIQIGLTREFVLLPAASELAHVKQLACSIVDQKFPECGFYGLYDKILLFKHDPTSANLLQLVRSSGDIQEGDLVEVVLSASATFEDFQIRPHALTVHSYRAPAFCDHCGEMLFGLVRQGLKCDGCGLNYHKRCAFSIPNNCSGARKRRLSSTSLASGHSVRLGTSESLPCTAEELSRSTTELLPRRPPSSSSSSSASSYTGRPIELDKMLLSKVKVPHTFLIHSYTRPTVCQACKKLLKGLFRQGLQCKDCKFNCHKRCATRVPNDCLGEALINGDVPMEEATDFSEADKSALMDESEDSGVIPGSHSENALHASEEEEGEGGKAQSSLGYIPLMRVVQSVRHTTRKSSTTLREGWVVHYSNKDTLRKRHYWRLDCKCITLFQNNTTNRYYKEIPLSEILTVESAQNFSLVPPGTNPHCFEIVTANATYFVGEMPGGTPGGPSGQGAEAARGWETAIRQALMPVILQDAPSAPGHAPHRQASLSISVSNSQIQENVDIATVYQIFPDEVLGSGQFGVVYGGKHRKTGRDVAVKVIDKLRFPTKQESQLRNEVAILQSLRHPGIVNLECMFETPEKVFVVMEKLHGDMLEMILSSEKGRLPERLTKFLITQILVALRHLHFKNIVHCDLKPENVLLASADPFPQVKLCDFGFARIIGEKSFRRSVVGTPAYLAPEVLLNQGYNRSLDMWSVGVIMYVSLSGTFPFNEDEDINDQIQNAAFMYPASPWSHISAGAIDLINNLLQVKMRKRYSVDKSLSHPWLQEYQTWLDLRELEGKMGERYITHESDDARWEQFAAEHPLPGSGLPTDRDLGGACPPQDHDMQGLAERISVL
Conditions: read-out: score (%).

For experiment [8], the target named is T8, KinomeScan kinase panel (Homo sapiens, UniProt Q9NSY1).
T8 construct: purchased DiscoveRx (KinomeScan)
T8 sequence (Q9NSY1 whole entry): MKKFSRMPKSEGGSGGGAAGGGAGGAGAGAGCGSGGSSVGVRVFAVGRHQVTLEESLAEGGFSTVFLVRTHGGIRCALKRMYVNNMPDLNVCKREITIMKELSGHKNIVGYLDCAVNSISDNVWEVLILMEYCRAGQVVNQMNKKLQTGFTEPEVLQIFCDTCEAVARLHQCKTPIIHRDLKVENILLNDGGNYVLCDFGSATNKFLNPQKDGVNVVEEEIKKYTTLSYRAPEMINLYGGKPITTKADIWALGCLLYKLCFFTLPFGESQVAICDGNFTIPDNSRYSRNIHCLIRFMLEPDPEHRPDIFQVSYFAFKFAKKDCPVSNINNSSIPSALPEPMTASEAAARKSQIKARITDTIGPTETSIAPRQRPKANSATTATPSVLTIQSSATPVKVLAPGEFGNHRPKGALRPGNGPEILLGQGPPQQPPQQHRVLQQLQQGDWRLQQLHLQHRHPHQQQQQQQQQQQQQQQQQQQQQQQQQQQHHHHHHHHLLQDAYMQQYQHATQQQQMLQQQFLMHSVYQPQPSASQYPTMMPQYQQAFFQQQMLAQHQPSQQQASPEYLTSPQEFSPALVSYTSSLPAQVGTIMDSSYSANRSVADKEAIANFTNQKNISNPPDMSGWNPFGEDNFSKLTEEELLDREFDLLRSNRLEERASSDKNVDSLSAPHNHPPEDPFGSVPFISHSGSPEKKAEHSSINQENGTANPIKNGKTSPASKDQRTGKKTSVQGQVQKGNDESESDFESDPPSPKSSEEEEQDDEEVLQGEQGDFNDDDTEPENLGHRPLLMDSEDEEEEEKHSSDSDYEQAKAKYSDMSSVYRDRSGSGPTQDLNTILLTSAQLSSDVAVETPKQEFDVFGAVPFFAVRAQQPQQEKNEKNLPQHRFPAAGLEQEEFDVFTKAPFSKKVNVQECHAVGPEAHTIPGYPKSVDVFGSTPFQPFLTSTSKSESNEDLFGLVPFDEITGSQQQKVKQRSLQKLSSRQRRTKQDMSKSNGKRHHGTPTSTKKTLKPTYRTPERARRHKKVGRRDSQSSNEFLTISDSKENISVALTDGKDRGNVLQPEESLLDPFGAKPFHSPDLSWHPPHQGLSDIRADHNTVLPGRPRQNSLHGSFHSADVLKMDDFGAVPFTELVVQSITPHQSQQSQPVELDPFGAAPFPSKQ
Conditions: BIKE, 10 µM; read-out: score (%).

Experiment [9] addresses T9, KinomeScan kinase panel (Homo sapiens, UniProt Q9Y463).
T9 construct: purchased DiscoveRx (KinomeScan)
The note with it: DYRK1B, 10 µM; read-out: score (%).

T6 sequence (Q96Q40 whole entry): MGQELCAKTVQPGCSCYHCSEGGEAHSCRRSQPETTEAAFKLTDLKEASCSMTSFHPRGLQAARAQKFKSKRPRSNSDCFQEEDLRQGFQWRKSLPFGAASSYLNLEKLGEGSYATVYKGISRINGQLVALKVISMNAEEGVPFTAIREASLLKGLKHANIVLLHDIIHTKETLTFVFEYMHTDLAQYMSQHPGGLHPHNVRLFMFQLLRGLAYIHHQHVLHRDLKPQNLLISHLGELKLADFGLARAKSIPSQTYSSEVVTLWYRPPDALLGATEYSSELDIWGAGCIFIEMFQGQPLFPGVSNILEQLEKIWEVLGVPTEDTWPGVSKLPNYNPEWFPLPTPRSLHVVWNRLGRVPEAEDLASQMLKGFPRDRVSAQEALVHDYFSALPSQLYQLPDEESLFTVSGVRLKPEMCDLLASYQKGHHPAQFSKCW
T9 sequence (Q9Y463 whole entry): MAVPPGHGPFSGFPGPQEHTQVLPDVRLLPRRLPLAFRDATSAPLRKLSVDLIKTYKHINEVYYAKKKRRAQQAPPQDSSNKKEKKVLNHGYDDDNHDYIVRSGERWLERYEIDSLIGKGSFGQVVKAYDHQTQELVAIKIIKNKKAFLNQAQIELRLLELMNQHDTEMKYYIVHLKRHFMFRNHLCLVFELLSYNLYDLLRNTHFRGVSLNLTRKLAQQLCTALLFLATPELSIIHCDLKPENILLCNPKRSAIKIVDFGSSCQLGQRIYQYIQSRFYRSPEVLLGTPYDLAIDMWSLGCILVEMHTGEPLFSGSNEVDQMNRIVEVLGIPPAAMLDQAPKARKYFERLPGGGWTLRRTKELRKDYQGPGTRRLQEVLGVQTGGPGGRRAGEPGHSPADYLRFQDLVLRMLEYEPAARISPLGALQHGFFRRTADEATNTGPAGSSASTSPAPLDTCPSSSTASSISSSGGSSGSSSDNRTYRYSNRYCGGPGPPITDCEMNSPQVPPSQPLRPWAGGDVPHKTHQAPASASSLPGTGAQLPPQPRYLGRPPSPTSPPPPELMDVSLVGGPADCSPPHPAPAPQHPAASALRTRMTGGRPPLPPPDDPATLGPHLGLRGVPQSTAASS
T1 sequence (O00238 14-502): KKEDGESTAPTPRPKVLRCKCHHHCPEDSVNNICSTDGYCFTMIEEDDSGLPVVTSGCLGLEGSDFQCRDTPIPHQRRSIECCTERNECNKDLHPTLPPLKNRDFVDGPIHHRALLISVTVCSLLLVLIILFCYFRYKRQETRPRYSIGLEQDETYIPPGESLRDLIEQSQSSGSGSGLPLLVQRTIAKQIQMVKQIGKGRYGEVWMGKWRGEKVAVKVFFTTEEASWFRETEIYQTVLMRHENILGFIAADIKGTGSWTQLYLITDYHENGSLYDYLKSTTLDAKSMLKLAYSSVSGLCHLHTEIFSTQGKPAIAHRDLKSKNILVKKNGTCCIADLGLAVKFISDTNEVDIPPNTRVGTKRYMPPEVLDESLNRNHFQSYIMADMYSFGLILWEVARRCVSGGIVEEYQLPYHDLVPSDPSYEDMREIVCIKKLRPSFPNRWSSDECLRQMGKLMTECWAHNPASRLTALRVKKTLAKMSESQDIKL
T2 sequence (O94804 whole entry): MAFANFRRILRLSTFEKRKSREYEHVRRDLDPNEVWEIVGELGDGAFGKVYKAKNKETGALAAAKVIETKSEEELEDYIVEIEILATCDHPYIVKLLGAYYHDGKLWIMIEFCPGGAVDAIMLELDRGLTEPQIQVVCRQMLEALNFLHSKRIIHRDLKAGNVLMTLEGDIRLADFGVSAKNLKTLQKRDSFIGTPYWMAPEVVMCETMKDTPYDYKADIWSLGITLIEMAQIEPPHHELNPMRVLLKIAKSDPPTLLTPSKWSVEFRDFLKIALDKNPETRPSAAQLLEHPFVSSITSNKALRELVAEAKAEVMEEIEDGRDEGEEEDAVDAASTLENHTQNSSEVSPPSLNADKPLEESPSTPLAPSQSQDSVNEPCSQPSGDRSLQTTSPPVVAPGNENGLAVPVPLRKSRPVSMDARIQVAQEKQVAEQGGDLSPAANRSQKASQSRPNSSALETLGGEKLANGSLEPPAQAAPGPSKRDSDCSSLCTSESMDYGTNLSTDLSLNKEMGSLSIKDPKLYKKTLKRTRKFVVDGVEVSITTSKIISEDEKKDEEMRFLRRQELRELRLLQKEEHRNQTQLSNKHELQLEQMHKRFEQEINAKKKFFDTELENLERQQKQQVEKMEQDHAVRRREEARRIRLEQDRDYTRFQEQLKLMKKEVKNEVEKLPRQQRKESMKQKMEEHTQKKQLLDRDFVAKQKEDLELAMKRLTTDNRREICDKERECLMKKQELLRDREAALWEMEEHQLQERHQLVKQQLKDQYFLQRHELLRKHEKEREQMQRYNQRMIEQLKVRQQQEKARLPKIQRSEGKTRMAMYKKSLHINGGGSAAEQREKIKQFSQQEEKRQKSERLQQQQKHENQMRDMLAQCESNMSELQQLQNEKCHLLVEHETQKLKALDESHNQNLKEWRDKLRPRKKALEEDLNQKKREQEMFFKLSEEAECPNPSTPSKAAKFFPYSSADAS

Consider `CCN1CCN(Cc2ccc(NC(=O)c3ccc(C)c(NC(=O)c4cncc(-c5cccs5)c4)c3)cc2C(F)(F)F)CC1` [ALW-II-41-27], for which the remaining binding at 10 µM on KinomeScan kinase panel [1] was greater than 30%; at KinomeScan kinase panel [3], greater than 30%; at KinomeScan kinase panel [4], 1%; at KinomeScan kinase panel [5] (PRKX), greater than 30%; on KinomeScan kinase panel [6], greater than 30%; on KinomeScan kinase panel [7] (PRKD2, 10 µM), greater than 30%. Moreover, the remaining binding at 10 µM is greater than 30% at KinomeScan kinase panel [8] and 12% at KinomeScan kinase panel [9]. For the same compound, the “score (%)” value at KinomeScan kinase panel [2] is 0.05%.
Turning to `CCN1CCN(Cc2ccc(NC(=O)c3ccc(C)c(/C=C/c4cnc5[nH]ccc5c4Cl)c3)cc2C(F)(F)F)CC1` [HG-6-63-01, (E)-3-(2-(4-chloro-1H-pyrrolo[2,3-b]pyridin-5-yl)vinyl)-N-(4-((4-ethylpiperazin-1-yl)methyl)-3-(trifluoromethyl)phenyl)-4-methylbenzamide], the remaining binding at 10 µM is greater than 30% on KinomeScan kinase panel [1]; greater than 30% on KinomeScan kinase panel [3]; 0% on KinomeScan kinase panel [4]; greater than 30% on KinomeScan kinase panel [5] (PRKX); greater than 30% at KinomeScan kinase panel [6]; 32% at KinomeScan kinase panel [7] (PRKD2, 10 µM). Further, the values for the remaining binding at 10 µM at KinomeScan kinase panel [8] and on KinomeScan kinase panel [9] were 1.2% and 22%, respectively. Moreover, at KinomeScan kinase panel [2], the “score (%)” value is reported as 0%.
Take `CCN1CCN(Cc2ccc(NC(=O)c3ccc(C)c(C#Cc4cccnc4)c3)cc2C(F)(F)F)CC1` [XMD15-44]: the remaining binding at 10 µM at KinomeScan kinase panel [1] was greater than 30%; at KinomeScan kinase panel [3], 84%; at KinomeScan kinase panel [4], 0%; on KinomeScan kinase panel [5] (kinase PRKX), 3.6%; at KinomeScan kinase panel [6], 6.4%; on KinomeScan kinase panel [7] (kinase PRKD2, 10 µM), 56%. For the same compound, the remaining binding at 10 µM on KinomeScan kinase panel [8] and on KinomeScan kinase panel [9] was greater than 30% throughout. The “score (%)” value on KinomeScan kinase panel [2] came out at 0%.
